Results from paper PMC9025901, “New Genetic Bomb Trigger: Design, Synthesis, Molecular Dynamics Simulation, and Biological Evaluation of Novel BIBR1532-Related Analogs Targeting Telomerase against Non-Small Cell Lung Cancer” (Pharmaceuticals, 2022).

Tests used:
telomerase = biological target: T1, telomerase (Homo sapiens, UniProt O14746); assay: TRAP / RTQ-TRAP telomerase activity assay in A549 cell-free lysates; format: biochemical; conditions: telomerase inhibition, mean ± SEM;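 further: telomerase activity measured in cell-free extracts of human A549 epithelial lung carcinoma cells, tested across a range of inhibitor concentrations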
T1 construct: A549 cells (human epithelial cell lung carcinoma, ATCC, Manassas, VA) were lysed in; host or cells: A549 cell lysate (CHAPS extract, 5 µg total protein)
Procedure: In cell-free investigations, human A549 (epithelial cell lung carcinoma) lysates were utilized to evaluate telomerase with various inhibitor concentrations. […] The Telomeric Repeat Amplification Protocol (TRAP) [61] was used to evaluate the activity of telomerase, with some changes that we have previously described [62, 63]. A549 cells (human epithelial cell lung carcinoma, ATCC, Manassas, VA) were lysed in (10 mM) Tris-HCl, pH 7.5, (1 mM) EGTA, (1 mM) MgCl2, (5 mM) 2-mercaptoethanol, (0.1 mM) PMSF, (0.5%) CHAPS, and (10%) glycerol (Sigma-Aldrich, St. Louis, MO, USA) and centrifugation. The supernatants were kept at -80 °C. The BCA-1 Protein Assay Kit was used to assess the protein concentration in cell extracts (Sigma-Aldrich, St. Louis, MO, USA). […] To inactivate telomerase, the cells were elongated for 30 min at 37 °C and 10 min at 96 °C. Copy CX-primer was added to the elongation mixture along with 0.1 μL ([NT]) and 2.5 units Taq-polymerase, followed by the following PCR: 94 °C for 5 min; 30 cycles of 94 °C for 30 s, 50 °C for 30 s, and 72 °C for 40 s, and 72 °C for 5 min. […] The gels were stained with the SYBR Green I (Invitrogen, Grand Island, NY, USA), then photographed under the UV light in ChemiDocTM XRS imaging system and analyzed with GelAnalyzer 2010. Analysis was carried out using SPSS 25 software, a 2-way ANOVA, and a student's t-test (IBM SPSS Statistics, Armonk, NY, USA). The mean ± SEM is used to express the findings. The significance level was set at p ≤ 0.05. […] According to Sebaugh J.L., et al.'s guidelines, the values were assessed using the Prism 6 software (GraphPad, San Diego, CA, USA) [65].

[1] = design: method as in PMID 18256617, PMID 32733068, PMID 32125789; conditions: cited from earlier work
[2] = biological target: T2, telomerase inside living cancer cells NCI-H23 (Homo sapiens, UniProt O14746); assay: Living-cell TRAP assay, NCI-H23; format: cell-based; conditions: percent of control cells, 10 µM, 48 h
T2 construct: host or cells: NCI-H23
Procedure: (§1) The Telomeric Repeat Amplification Protocol (TRAP) [61] was used to evaluate the activity of telomerase, with some changes that we have previously described [62, 63]. A549 cells (human epithelial cell lung carcinoma, ATCC, Manassas, VA) were lysed in (10 mM) Tris-HCl, pH 7.5, (1 mM) EGTA, (1 mM) MgCl2, (5 mM) 2-mercaptoethanol, (0.1 mM) PMSF, (0.5%) CHAPS, and (10%) glycerol (Sigma-Aldrich, St. Louis, MO, USA) and centrifugation. The supernatants were kept at -80 °C. The BCA-1 Protein Assay Kit was used to assess the protein concentration in cell extracts (Sigma-Aldrich, St. Louis, MO, USA). […] To inactivate telomerase, the cells were elongated for 30 min at 37 °C and 10 min at 96 °C. Copy CX-primer was added to the elongation mixture along with 0.1 μL ([NT]) and 2.5 units Taq-polymerase, followed by the following PCR: 94 °C for 5 min; 30 cycles of 94 °C for 30 s, 50 °C for 30 s, and 72 °C for 40 s, and 72 °C for 5 min. TBE buffer and (12%) nondenaturing PAAG electrophoresis were used to visualize the PCR product. 10 μL of each sample was placed in each well of gel comb. The gels were stained with the SYBR Green I (Invitrogen, Grand Island, NY, USA), then photographed under the UV light in ChemiDocTM XRS imaging system and analyzed with GelAnalyzer 2010.

[3] = biological target: T3, telomerase inside living cancer cells A549 (Homo sapiens, UniProt O14746); assay: Living-cell TRAP assay, A549; format: cell-based; conditions: percent of control cells, 10 µM, 48 h
T3 construct: host or cells: A549
Procedure: as §1

[4] = biological target: T4, telomerase inside living cancer cells HCC44 (Homo sapiens, UniProt O14746); assay: Living-cell TRAP assay, HCC44; format: cell-based; conditions: percent of control cells, 10 µM, 48 h
T4 construct: host or cells: HCC44
Procedure: as §1

[5] = tested on: advanced non-small cell lung cancer; design: method as in PMID 32733068, PMID 25467017; conditions: phase II clinical trials, patients with advanced non-small cell lung cancer; cited from earlier work

T1 sequence (O14746 whole entry): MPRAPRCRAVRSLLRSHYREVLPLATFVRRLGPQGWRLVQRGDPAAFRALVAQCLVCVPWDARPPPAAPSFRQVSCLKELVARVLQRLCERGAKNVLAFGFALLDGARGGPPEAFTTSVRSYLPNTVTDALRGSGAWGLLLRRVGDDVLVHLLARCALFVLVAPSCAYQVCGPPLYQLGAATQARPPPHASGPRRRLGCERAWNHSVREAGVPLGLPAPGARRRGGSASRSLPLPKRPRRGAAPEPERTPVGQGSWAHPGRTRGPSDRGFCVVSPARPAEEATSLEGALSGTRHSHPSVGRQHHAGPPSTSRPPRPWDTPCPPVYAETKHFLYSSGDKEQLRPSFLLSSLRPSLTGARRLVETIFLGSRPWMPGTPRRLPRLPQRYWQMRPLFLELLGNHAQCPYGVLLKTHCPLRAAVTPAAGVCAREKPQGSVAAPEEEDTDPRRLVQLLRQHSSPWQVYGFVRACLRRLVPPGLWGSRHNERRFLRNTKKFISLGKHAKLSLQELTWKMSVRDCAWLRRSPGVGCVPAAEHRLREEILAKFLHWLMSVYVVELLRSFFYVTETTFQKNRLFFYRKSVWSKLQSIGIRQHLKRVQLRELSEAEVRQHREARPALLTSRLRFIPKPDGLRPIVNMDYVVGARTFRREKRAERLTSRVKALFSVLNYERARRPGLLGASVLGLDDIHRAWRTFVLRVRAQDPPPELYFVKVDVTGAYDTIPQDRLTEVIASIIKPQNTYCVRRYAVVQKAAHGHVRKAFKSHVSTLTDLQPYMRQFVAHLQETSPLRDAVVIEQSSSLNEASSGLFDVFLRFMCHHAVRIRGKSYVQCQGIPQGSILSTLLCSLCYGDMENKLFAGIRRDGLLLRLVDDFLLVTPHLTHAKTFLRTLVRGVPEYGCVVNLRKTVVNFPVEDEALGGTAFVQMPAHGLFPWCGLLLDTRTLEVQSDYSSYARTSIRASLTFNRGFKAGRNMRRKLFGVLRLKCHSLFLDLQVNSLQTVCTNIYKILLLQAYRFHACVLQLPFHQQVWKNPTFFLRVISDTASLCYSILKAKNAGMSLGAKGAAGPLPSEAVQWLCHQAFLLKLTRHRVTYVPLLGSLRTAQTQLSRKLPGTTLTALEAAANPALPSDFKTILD
T1 sequence (O60832 whole entry partner): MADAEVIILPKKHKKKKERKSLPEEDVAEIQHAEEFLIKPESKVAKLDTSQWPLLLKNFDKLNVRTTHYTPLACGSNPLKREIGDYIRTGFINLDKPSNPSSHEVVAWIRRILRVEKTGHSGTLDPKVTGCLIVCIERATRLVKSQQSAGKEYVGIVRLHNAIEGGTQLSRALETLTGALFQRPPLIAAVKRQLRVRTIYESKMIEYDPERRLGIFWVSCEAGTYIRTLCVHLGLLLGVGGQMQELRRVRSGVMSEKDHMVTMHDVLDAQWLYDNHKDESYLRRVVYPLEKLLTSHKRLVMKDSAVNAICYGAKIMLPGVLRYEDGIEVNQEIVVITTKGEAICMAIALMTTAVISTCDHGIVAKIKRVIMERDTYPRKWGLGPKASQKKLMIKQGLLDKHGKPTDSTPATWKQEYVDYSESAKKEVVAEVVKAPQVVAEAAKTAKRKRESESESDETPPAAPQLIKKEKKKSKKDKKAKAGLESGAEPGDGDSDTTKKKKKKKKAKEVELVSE
T1 sequence (Q9NX24 whole entry partner): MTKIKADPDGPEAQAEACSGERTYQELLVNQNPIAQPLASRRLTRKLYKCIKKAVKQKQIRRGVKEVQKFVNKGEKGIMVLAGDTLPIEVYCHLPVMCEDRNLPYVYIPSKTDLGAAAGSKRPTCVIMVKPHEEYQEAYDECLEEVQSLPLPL
T1 sequence (Q9NPE3 whole entry partner): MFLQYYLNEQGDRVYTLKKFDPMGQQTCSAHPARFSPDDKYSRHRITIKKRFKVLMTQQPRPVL
T1 sequence (Q9NY12 whole entry partner): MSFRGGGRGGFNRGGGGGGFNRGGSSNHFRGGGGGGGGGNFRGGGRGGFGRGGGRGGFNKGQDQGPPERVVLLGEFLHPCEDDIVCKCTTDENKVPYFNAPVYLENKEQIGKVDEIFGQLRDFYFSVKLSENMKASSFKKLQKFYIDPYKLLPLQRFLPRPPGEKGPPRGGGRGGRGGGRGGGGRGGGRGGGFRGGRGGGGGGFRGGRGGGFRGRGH
T1 sequence (Q9BUR4 whole entry partner): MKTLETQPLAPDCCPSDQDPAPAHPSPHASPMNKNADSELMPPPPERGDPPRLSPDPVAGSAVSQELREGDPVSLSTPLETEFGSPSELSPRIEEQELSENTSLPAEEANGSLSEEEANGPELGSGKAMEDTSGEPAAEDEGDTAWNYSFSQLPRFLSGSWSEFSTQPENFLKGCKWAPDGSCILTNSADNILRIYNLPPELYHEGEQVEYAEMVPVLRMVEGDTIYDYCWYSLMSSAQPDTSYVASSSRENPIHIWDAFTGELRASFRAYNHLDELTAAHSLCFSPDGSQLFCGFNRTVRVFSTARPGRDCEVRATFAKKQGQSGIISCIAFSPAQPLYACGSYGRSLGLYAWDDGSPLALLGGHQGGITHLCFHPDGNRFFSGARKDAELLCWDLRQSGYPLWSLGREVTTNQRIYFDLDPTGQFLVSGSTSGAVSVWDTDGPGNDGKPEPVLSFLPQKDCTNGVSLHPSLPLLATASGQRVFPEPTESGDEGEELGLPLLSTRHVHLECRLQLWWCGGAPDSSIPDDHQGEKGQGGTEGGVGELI
T4 sequence (O14746 whole entry): as the sequence (O14746 whole entry) above
T4 sequence (O60832 whole entry partner): as the sequence (O60832 whole entry partner) above
T4 sequence (Q9NX24 whole entry partner): as the sequence (Q9NX24 whole entry partner) above
T4 sequence (Q9NPE3 whole entry partner): as the sequence (Q9NPE3 whole entry partner) above
T4 sequence (Q9NY12 whole entry partner): as the sequence (Q9NY12 whole entry partner) above
T4 sequence (Q9BUR4 whole entry partner): as the sequence (Q9BUR4 whole entry partner) above
T2 sequence (O14746 whole entry): as the sequence (O14746 whole entry) above
T2 sequence (O60832 whole entry partner): as the sequence (O60832 whole entry partner) above
T2 sequence (Q9NX24 whole entry partner): as the sequence (Q9NX24 whole entry partner) above
T2 sequence (Q9NPE3 whole entry partner): as the sequence (Q9NPE3 whole entry partner) above
T2 sequence (Q9NY12 whole entry partner): as the sequence (Q9NY12 whole entry partner) above
T2 sequence (Q9BUR4 whole entry partner): as the sequence (Q9BUR4 whole entry partner) above
T3 sequence (O14746 whole entry): as the sequence (O14746 whole entry) above
T3 sequence (O60832 whole entry partner): as the sequence (O60832 whole entry partner) above
T3 sequence (Q9NX24 whole entry partner): as the sequence (Q9NX24 whole entry partner) above
T3 sequence (Q9NPE3 whole entry partner): as the sequence (Q9NPE3 whole entry partner) above
T3 sequence (Q9NY12 whole entry partner): as the sequence (Q9NY12 whole entry partner) above
T3 sequence (Q9BUR4 whole entry partner): as the sequence (Q9BUR4 whole entry partner) above

| Compound | IC90 (telomerase) | cellular uptake [1] | pharmacokinetics [1] | % Telomerase Activity in Cancer Cells [2] | IC50 (telomerase) | % Telomerase Activity in Cancer Cells [3] | % Telomerase Activity in Cancer Cells [4] | melting point | overall survival [5] |
| --- | --- | --- | --- | --- | --- | --- | --- | --- | --- |
| C/C(=C\C(=O)Nc1ccccc1C(=O)O)c1ccc2ccccc2c1 [BIBR1532] | 5.6 ± 0.02 µM | low cellular uptake | poor pharmacokinetics | – | – | – | – | – | – |
| N#C/C(=C\c1ccc(N2CCCCC2)cc1)C(=O)Nc1sc2c(c1C#N)CCC2 [Compound 29a, (2E)-2-Cyano-N-{3-cyano-4H,5H,6H-cyclopenta[b]thiophen-2-yl}-3-[4-(piperidin-1-yl)phenyl]prop-2-enamide] | 6.3 ± 0.3 µM | – | – | 28.2 ± 3.9% | 1.7 ± 0.04 µM | 22.1 ± 4.8% | 66.1 ± 2.4% | – | – |
| N#C/C(=C\c1cccc2c1OCO2)C(=O)Nc1sc2c(c1C#N)CCC2 [Compound 37a, (2E)-3-(2H-1,3-Benzodioxol-4-yl)-2-cyano-N-{3-cyano-4H,5H,6H-cyclopenta[b]thiophen-2-yl}prop-2-enamide] | 137 ± 2.6 µM | – | – | – | 23.5 ± 0.9 µM | – | – | 286 to 288 °C | – |
| N#C/C(=C\c1cccc2c1OCO2)C(=O)Nc1sc2c(c1C#N)CCCC2 [Compound 37b, (2E)-3-(2H-1,3-Benzodioxol-4-yl)-2-cyano-N-(3-cyano-4,5,6,7-tetrahydro-1-benzothiophen-2-yl)prop-2-enamide] | 174 µM | – | – | – | 97.8 ± 2.6 µM | – | – | 226 to 228 °C | – |
| N#C/C(=C\c1ccc2c(c1)OCO2)C(=O)Nc1sc2c(c1C#N)CCC2 [Compound 38a, (2E)-3-(2H-1,3-Benzodioxol-5-yl)-2-cyano-N-{3-cyano-4H,5H,6H-cyclopenta[b]thiophen-2-yl}prop-2-enamide] | 282 µM | – | – | – | 25.4 ± 1 µM | – | – | 219 to 221 °C | – |
| N#C/C(=C\c1ccc2c(c1)OCO2)C(=O)Nc1sc2c(c1C#N)CCCC2 [Compound 38b, (2E)-3-(2H-1,3-Benzodioxol-5-yl)-2-cyano-N-(3-cyano-4,5,6,7-tetrahydro-1-benzothiophen-2-yl)prop-2-enamide] | 339 µM | – | – | – | 40.3 ± 1.7 µM | – | – | 204 to 206 °C | – |
| N#C/C(=C\c1c[nH]c2ccccc12)C(=O)Nc1sc2c(c1C#N)CCC2 [Compound 39a, (2E)-2-Cyano-N-{3-cyano-4H,5H,6H-cyclopenta[b]thiophen-2-yl}-3-(1H-indol-3-yl)prop-2-enamide] | 9.5 ± 0.3 µM | – | – | – | 2.5 ± 0.1 µM | – | – | 284 to 286 °C | – |
| N#C/C(=C\c1c[nH]c2ccccc12)C(=O)Nc1sc2c(c1C#N)CCCC2 [Compound 39b, (2E)-2-Cyano-N-(3-cyano-4,5,6,7-tetrahydro-1-benzothiophen-2-yl)-3-(1H-indol-3-yl)prop-2-enamide] | 7.1 ± 0.3 µM | – | – | 50.3 ± 5.1% | 2 ± 0.03 µM | 41.5 ± 6.9% | 75.6 ± 7.9% | 284 to 286 °C | – |
| Imetelstat | – | – | – | – | – | – | – | – | no improvement in overall survival |
